Source: article PMC12628652, “A Validated UPLC‐MS/MS Method for Monitoring Temozolomide and Perillyl Alcohol Metabolites in Biological Matrices: Insights From a Preclinical Pharmacokinetic Study” (Biomedical Chromatography, 2025)

Legend:
[1] = Pharmacokinetic study in rats after single oral administration of POH and TMZ (plasma, UPLC-MS/MS); format: in vivo, Male Wistar rats; settings: rat plasma; for AUC(0-t): read-out: AUC0–24h
Experimental: Approximately 200 μL of whole blood was collected from the tail vein of each rat. Samples were centrifuged at 3500 rpm for 10 min at 20°C to separate the plasma. Plasma samples were then subjected to liquid–liquid extraction with ACN. The mixture was centrifuged again at 3500 rpm for 10 min at 4°C. The resulting supernatant was filtered through hydrophobic 0.22 μm membranes and transferred to autosampler vials. A 2 μL aliquot of each sample was injected into the UPLC‐MS/MS system for analysis.
Thawed plasma samples (50 μL) were also prepared by protein precipitation. Each sample was mixed with 50 μL of IS solution and 900 μL of ACN, followed by centrifugation at 3500 rpm for 10 min at 20°C. The supernatants were filtered and analyzed as described. All dilutions were performed based on analyte concentration to ensure compliance with the method's validated dynamic range.
The pharmacokinetic and biodistribution study was conducted in accordance with ethical guidelines and approved by the Animal Ethics Committee of the Universidade Estadual do Centro‐Oeste, Brazil (Protocol No. 026/2023). Male Wistar rats (n = 6 for pharmacokinetics; n = 4 for biodistribution), weighing approximately 200 g, were housed under controlled environmental conditions (12 h light/dark cycle, 35% relative humidity, and temperature of 23°C ± 2°C). Animals had free access to food and water, which were withheld 10 h prior to drug administration and resumed 2 h afterward.
Each animal received a single oral dose of POH (47 mg/kg) and TMZ (2 mg/kg). For pharmacokinetic profiling, blood samples were collected via the tail vein into heparinized tubes at predefined time points: 0.5, 1, 2, 4, 8, 12, and 24 h post‐administration. For biodistribution analysis, a separate cohort of rats (n = 4) was sacrificed 4 h after dosing. Organs, including the brain, liver, lungs, kidneys, and spleen, were collected, homogenized, and stored at −20°C for subsequent quantification, as detailed in Section 3.2.
Pharmacokinetic parameters were calculated using non‐compartmental analysis with the PKSolver plugin for Microsoft Excel. The following parameters were determined: area under the plasma concentration–time curve from 0 to 24 h (AUC0–24h), maximum plasma concentration (Cmax), time to reach Cmax (tmax), elimination half‐life (t1/2), volume of distribution (VD), and total clearance (CL).

[2] = Stability of analytes in rat plasma and tissue matrices (freeze-thaw, bench-top, autosampler); format: physicochemical; settings: for Stability (ER %) Autosampler: 10°C for 24 h; for Stability (ER %) Bench-top: room temperature for 6 h; for Stability (ER %) Freeze/thaw: three freeze–thaw cycles over 24-h intervals
Experimental: QC samples were prepared by spiking blank rat plasma with PA, AIC, and TMZ at three concentration levels: 30, 80, and 200 ng/mL. Internal standards (IS1 and IS2) were added to each sample at a final concentration of 100 ng/mL. Whole blood was obtained from untreated anesthetized rats that were euthanized as part of the study protocol. Blood samples were collected into heparinized tubes and centrifuged at 3500 rpm for 10 min at 20°C to separate plasma. Organs including the brain, lungs, kidneys, spleen, and liver were promptly excised and homogenized using a Marconi mechanical tissue homogenizer (5 mm probe) in phosphate‐buffered saline (PBS, pH 7.4) at a 1:5 (w/v) tissue‐to‐buffer ratio.
For each matrix sample, 50 μL of homogenate or plasma was mixed with 50 μL of internal standard (IS) solution (100 ng/mL), followed by the addition of the respective working solution to reach the target analyte concentration. The volume was adjusted to 1 mL using an appropriate solvent mixture. Samples were centrifuged again at 3500 rpm for 10 min at 4°C. The resulting supernatants were filtered through 0.22 μm membrane filters prior to chromatographic analysis. All calibration standards and QC samples were prepared freshly on the day of analysis to minimize analyte degradation.
The stability of PA, AIC, and TMZ in rat plasma was assessed under the following conditions using low, medium, and high QC levels: (1) Freeze–thaw stability: Three freeze–thaw cycles over 24‐h intervals; (2) Bench‐top stability: Storage at room temperature for 6 h; (3) Autosampler stability: Storage at 10°C for 24 h. Analytes were considered stable if the relative error (RE%) remained within ±15% (Tiwari and Tiwari [2010]).

[3] = male, Wistar, single oral dose POH 47 mg/kg and TMZ 2 mg/kg, n = 6
[4] = single oral dose POH 47 mg/kg and TMZ 2 mg/kg, n = 6
[5] = rat brain homogenate, 200 ng/mL
[6] = rat kidney homogenate, 30 ng/mL
[7] = rat kidney homogenate, 80 ng/mL
[8] = rat kidney homogenate, 200 ng/mL
[9] = rat liver homogenate, 200 ng/mL
[10] = rat spleen homogenate, 30 ng/mL
[11] = rat spleen homogenate, 80 ng/mL
[12] = rat spleen homogenate, 200 ng/mL

NC(=O)c1[nH]cnc1N [AIC, 5‐aminoimidazole‐4‐carboxamide]
Tmax [1, 3]: 1 h
half-life [1, 3]: 18.5 h
k el [1, 3]: 1.03e-05 s⁻¹
AUC(0-t) [1, 3]: 2190 ng·h/mL
CL [1, 4]: 3.83 mL/min/kg
Vd [1, 4]: 6.09 L/kg
Stability (ER %) Autosampler ([2]; rat brain homogenate, 30 ng/mL): 2.04%
Stability (ER %) Bench-top ([2]; rat brain homogenate, 30 ng/mL): 7.13%
Stability (ER %) Freeze/thaw ([2]; rat brain homogenate, 30 ng/mL): 8.55%
Stability (ER %) Autosampler ([2]; rat brain homogenate, 80 ng/mL): 4.29%
Stability (ER %) Bench-top ([2]; rat brain homogenate, 80 ng/mL): 8.22%
Stability (ER %) Freeze/thaw ([2]; rat brain homogenate, 80 ng/mL): 1.79%
Stability (ER %) Autosampler [2, 5]: 4.57%
Stability (ER %) Bench-top [2, 5]: 9.26%
Stability (ER %) Freeze/thaw [2, 5]: 6.76%
Stability (ER %) Autosampler [2, 6]: 4.28%
Stability (ER %) Bench-top [2, 6]: 2.11%
Stability (ER %) Freeze/thaw [2, 6]: 1.29%
Stability (ER %) Autosampler [2, 7]: 5.42%
Stability (ER %) Bench-top [2, 7]: 8.94%
Stability (ER %) Freeze/thaw [2, 7]: 8.45%
Stability (ER %) Autosampler [2, 8]: 5.94%
Stability (ER %) Bench-top [2, 8]: 8.76%
Stability (ER %) Freeze/thaw [2, 8]: 6.46%
Stability (ER %) Autosampler ([2]; rat liver homogenate, 30 ng/mL): 4.35%
Stability (ER %) Bench-top ([2]; rat liver homogenate, 30 ng/mL): 9.13%
Stability (ER %) Freeze/thaw ([2]; rat liver homogenate, 30 ng/mL): 1.67%
Stability (ER %) Autosampler ([2]; rat liver homogenate, 80 ng/mL): 1.74%
Stability (ER %) Bench-top ([2]; rat liver homogenate, 80 ng/mL): 3.28%
Stability (ER %) Freeze/thaw ([2]; rat liver homogenate, 80 ng/mL): 9.53%
Stability (ER %) Autosampler [2, 9]: 2.34%
Stability (ER %) Bench-top [2, 9]: 8.71%
Stability (ER %) Freeze/thaw [2, 9]: 7.67%
Stability (ER %) Autosampler ([2]; rat lung homogenate, 30 ng/mL): 2.22%
Stability (ER %) Bench-top ([2]; rat lung homogenate, 30 ng/mL): 7.93%
Stability (ER %) Freeze/thaw ([2]; rat lung homogenate, 30 ng/mL): 5.74%
Stability (ER %) Autosampler ([2]; rat lung homogenate, 80 ng/mL): 2.84%
Stability (ER %) Bench-top ([2]; rat lung homogenate, 80 ng/mL): 8.37%
Stability (ER %) Freeze/thaw ([2]; rat lung homogenate, 80 ng/mL): 1.04%
Stability (ER %) Autosampler ([2]; rat lung homogenate, 200 ng/mL): 3.33%
Stability (ER %) Bench-top ([2]; rat lung homogenate, 200 ng/mL): 8.49%
Stability (ER %) Freeze/thaw ([2]; rat lung homogenate, 200 ng/mL): 6.67%
Stability (ER %) Autosampler ([2]; rat plasma, 30 ng/mL): 12.36%
Stability (ER %) Bench-top ([2]; rat plasma, 30 ng/mL): 6.77%
Stability (ER %) Freeze/thaw ([2]; rat plasma, 30 ng/mL): 10.24%
Stability (ER %) Autosampler ([2]; rat plasma, 80 ng/mL): 13.46%
Stability (ER %) Bench-top ([2]; rat plasma, 80 ng/mL): 10.93%
Stability (ER %) Freeze/thaw ([2]; rat plasma, 80 ng/mL): 5.34%
Stability (ER %) Autosampler ([2]; rat plasma, 200 ng/mL): 3.48%
Stability (ER %) Bench-top ([2]; rat plasma, 200 ng/mL): 9.03%
Stability (ER %) Freeze/thaw ([2]; rat plasma, 200 ng/mL): 1.04%
Stability (ER %) Autosampler [2, 10]: 4.01%
Stability (ER %) Bench-top [2, 10]: 1.42%
Stability (ER %) Freeze/thaw [2, 10]: 8.36%
Stability (ER %) Autosampler [2, 11]: 4.98%
Stability (ER %) Bench-top [2, 11]: 3.74%
Stability (ER %) Freeze/thaw [2, 11]: 4.43%
Stability (ER %) Autosampler [2, 12]: 3.13%
Stability (ER %) Bench-top [2, 12]: 1.52%
Stability (ER %) Freeze/thaw [2, 12]: 1.32%

C=C(C)[C@@H]1CC=C(C(=O)O)CC1 [PA, perillic acid]
Tmax ([1]; male, Wistar, single oral dose POH 47 mg/kg): ≤ 0.5 h
Cmax [1, 3]: 704 ng/mL
Tmax [1, 3]: 0.5 h
half-life [1, 3]: 19 h
k el [1, 3]: 1e-05 s⁻¹
AUC(0-t) [1, 3]: 2200 ng·h/mL
CL [1, 4]: 3.83 mL/min/kg
Vd [1, 4]: 6.26 L/kg
Stability (ER %) Autosampler ([2]; rat brain homogenate, 30 ng/mL): 2.95%
Stability (ER %) Bench-top ([2]; rat brain homogenate, 30 ng/mL): 1.28%
Stability (ER %) Freeze/thaw ([2]; rat brain homogenate, 30 ng/mL): 1.93%
Stability (ER %) Autosampler ([2]; rat brain homogenate, 80 ng/mL): 2.37%
Stability (ER %) Bench-top ([2]; rat brain homogenate, 80 ng/mL): 10.03%
Stability (ER %) Freeze/thaw ([2]; rat brain homogenate, 80 ng/mL): 7.85%
Stability (ER %) Autosampler [2, 5]: 4.49%
Stability (ER %) Bench-top [2, 5]: 5.74%
Stability (ER %) Freeze/thaw [2, 5]: 2.46%
Stability (ER %) Autosampler [2, 6]: 4.24%
Stability (ER %) Bench-top [2, 6]: 9.61%
Stability (ER %) Freeze/thaw [2, 6]: 8.61%
Stability (ER %) Autosampler [2, 7]: 3.42%
Stability (ER %) Bench-top [2, 7]: 7.75%
Stability (ER %) Freeze/thaw [2, 7]: 7.99%
Stability (ER %) Autosampler [2, 8]: 3.31%
Stability (ER %) Bench-top [2, 8]: 1.36%
Stability (ER %) Freeze/thaw [2, 8]: 1.82%
Stability (ER %) Autosampler ([2]; rat liver homogenate, 30 ng/mL): 5.04%
Stability (ER %) Bench-top ([2]; rat liver homogenate, 30 ng/mL): 1.59%
Stability (ER %) Freeze/thaw ([2]; rat liver homogenate, 30 ng/mL): 1.52%
Stability (ER %) Autosampler ([2]; rat liver homogenate, 80 ng/mL): 2.92%
Stability (ER %) Bench-top ([2]; rat liver homogenate, 80 ng/mL): 2.49%
Stability (ER %) Freeze/thaw ([2]; rat liver homogenate, 80 ng/mL): 3.24%
Stability (ER %) Autosampler [2, 9]: 4.45%
Stability (ER %) Bench-top [2, 9]: 0.42%
Stability (ER %) Freeze/thaw [2, 9]: 2.39%
Stability (ER %) Autosampler ([2]; rat lung homogenate, 30 ng/mL): 4.01%
Stability (ER %) Bench-top ([2]; rat lung homogenate, 30 ng/mL): 1.39%
Stability (ER %) Freeze/thaw ([2]; rat lung homogenate, 30 ng/mL): 2.68%
Stability (ER %) Autosampler ([2]; rat lung homogenate, 80 ng/mL): 4.14%
Stability (ER %) Bench-top ([2]; rat lung homogenate, 80 ng/mL): 2.94%
Stability (ER %) Freeze/thaw ([2]; rat lung homogenate, 80 ng/mL): 4.23%
Stability (ER %) Autosampler ([2]; rat lung homogenate, 200 ng/mL): 3.04%
Stability (ER %) Bench-top ([2]; rat lung homogenate, 200 ng/mL): 8.02%
Stability (ER %) Freeze/thaw ([2]; rat lung homogenate, 200 ng/mL): 6.65%
Stability (ER %) Autosampler ([2]; rat plasma, 30 ng/mL): 10.61%
Stability (ER %) Bench-top ([2]; rat plasma, 30 ng/mL): 5.32%
Stability (ER %) Freeze/thaw ([2]; rat plasma, 30 ng/mL): 1.26%
Stability (ER %) Autosampler ([2]; rat plasma, 80 ng/mL): 14.01%
Stability (ER %) Bench-top ([2]; rat plasma, 80 ng/mL): 11.90%
Stability (ER %) Freeze/thaw ([2]; rat plasma, 80 ng/mL): 8.67%
Stability (ER %) Autosampler ([2]; rat plasma, 200 ng/mL): 3.21%
Stability (ER %) Bench-top ([2]; rat plasma, 200 ng/mL): 13.82%
Stability (ER %) Freeze/thaw ([2]; rat plasma, 200 ng/mL): 4.45%
Stability (ER %) Autosampler [2, 10]: 3.25%
Stability (ER %) Bench-top [2, 10]: 2.55%
Stability (ER %) Freeze/thaw [2, 10]: 2.72%
Stability (ER %) Autosampler [2, 11]: 2.24%
Stability (ER %) Bench-top [2, 11]: 6.84%
Stability (ER %) Freeze/thaw [2, 11]: 5.52%
Stability (ER %) Autosampler [2, 12]: 3.41%
Stability (ER %) Bench-top [2, 12]: 9.57%
Stability (ER %) Freeze/thaw [2, 12]: 8.51%
